Patent US10696615B2, “Prenylated hydroxystilbenes” (The University of Sydney, priority 2011, dated 2020)

Tests used:
[1] = tested on: IGROV1; test: NCI in vitro cancer screen, Ovarian Cancer; assay type: cell-based, human; conditions: IGROV1, Ovarian Cancer
[2] = tested on: MDA-MB-435; test: NCI in vitro cancer screen, Melanoma; assay type: cell-based, human; conditions: MDA-MB-435, Melanoma
[3] = tested on: HOP-92; test: NCI in vitro cancer screen, Non-Small Cell Lung Cancer; assay type: cell-based, human; conditions: HOP-92, Non-Small Cell Lung Cancer
[4] = tested on: SF-268; test: NCI in vitro cancer screen, CNS Cancer; assay type: cell-based, human; conditions: SF-268, CNS Cancer
[5] = tested on: HL-60 (TB); test: NCI in vitro cancer screen, Leukemia; assay type: cell-based, human; conditions: HL-60(TB), Leukemia
[6] = tested on: OVCAR-8; test: NCI in vitro cancer screen, Ovarian Cancer; assay type: cell-based, human; conditions: OVCAR-8, Ovarian Cancer
[7] = tested on: K-562; test: NCI in vitro cancer screen, Leukemia; assay type: cell-based, human; conditions: K-562, Leukemia
[8] = tested on: A549/ATCC; test: NCI in vitro cancer screen, Non-Small Cell Lung Cancer; assay type: cell-based, human; conditions: Non-Small Cell Lung Cancer
[9] = tested on: SN12C; test: NCI in vitro cancer screen, Renal Cancer; assay type: cell-based, human; conditions: Renal Cancer
[10] = tested on: A498; test: NCI in vitro cancer screen, Renal Cancer; assay type: cell-based, human; conditions: A498, Renal Cancer
[11] = tested on: OVCAR-5; test: NCI in vitro cancer screen, Ovarian Cancer; assay type: cell-based, human; conditions: OVCAR-5, Ovarian Cancer
[12] = tested on: OVCAR-3; test: NCI in vitro cancer screen, Ovarian Cancer; assay type: cell-based, human; conditions: OVCAR-3, Ovarian Cancer
[13] = tested on: UACC-62; test: NCI in vitro cancer screen, Melanoma; assay type: cell-based, human; conditions: UACC-62, Melanoma
[14] = tested on: SF-295; test: NCI in vitro cancer screen, CNS Cancer; assay type: cell-based, human; conditions: SF-295, CNS Cancer
[15] = tested on: MOLT-4; test: NCI in vitro cancer screen, Leukemia; assay type: cell-based, human; conditions: MOLT-4, Leukemia
[16] = tested on: NCI-H522; test: NCI in vitro cancer screen, Non-Small Cell Lung Cancer; assay type: cell-based, human; conditions: NCI-H522, Non-Small Cell Lung Cancer
[17] = tested on: TK-10; test: NCI in vitro cancer screen, Renal Cancer; assay type: cell-based, human; conditions: TK-10, Renal Cancer
[18] = tested on: LOX IMVI; test: NCI in vitro cancer screen, Melanoma; assay type: cell-based, human; conditions: Melanoma
[19] = tested on: NCI-H226; test: NCI in vitro cancer screen, Non-Small Cell Lung Cancer; assay type: cell-based, human; conditions: NCI-H226, Non-Small Cell Lung Cancer
[20] = tested on: PC-3; test: NCI in vitro cancer screen, Prostate Cancer; assay type: cell-based, human; conditions: PC-3, Prostate Cancer
[21] = tested on: KM12; test: NCI in vitro cancer screen, Colon Cancer; assay type: cell-based, human; conditions: KM12, Colon Cancer
[22] = tested on: HOP-62; test: NCI in vitro cancer screen, Non-Small Cell Lung Cancer; assay type: cell-based, human; conditions: HOP-62, Non-Small Cell Lung Cancer
[23] = tested on: SK-OV-3; test: NCI in vitro cancer screen, Ovarian Cancer; assay type: cell-based, human; conditions: SK-OV-3, Ovarian Cancer
[24] = tested on: T-47D; test: NCI in vitro cancer screen, Breast Cancer; assay type: cell-based, human; conditions: Breast Cancer
[25] = tested on: SNB-75; test: NCI in vitro cancer screen, CNS Cancer; assay type: cell-based, human; conditions: SNB-75, CNS Cancer
[26] = tested on: SF-539; test: NCI in vitro cancer screen, CNS Cancer; assay type: cell-based; conditions: SF-539, CNS Cancer
[27] = tested on: 786-0; test: NCI in vitro cancer screen, Renal Cancer; assay type: cell-based, human; conditions: 786-0, Renal Cancer
[28] = tested on: SK-MEL-5; test: NCI in vitro cancer screen, Melanoma; assay type: cell-based, human; conditions: SK-MEL-5, Melanoma
[29] = tested on: SW-620; test: NCI in vitro cancer screen, Colon Cancer; assay type: cell-based, human; conditions: SW-620, Colon Cancer
[30] = tested on: RXF-393; test: NCI in vitro cancer screen, Renal Cancer; assay type: cell-based, human; conditions: RXF 393, Renal Cancer
[31] = tested on: HS 578T; test: NCI in vitro cancer screen, Breast Cancer; assay type: cell-based, human; conditions: Breast Cancer
[32] = Homo sapiens, read-out: LC50 (the source's name)

## CC(C)=CCOc1cc(O)cc(/C=C/c2ccc(O)c(O)c2)c1CC=C(C)C [USYDS14, (E)-2-(3-methyl-2-buten-1-yl)-3-(3-methyl-2-butenyloxy)-3′,4′,5-trihydroxystilbene]
[1]; Homo sapiens, IGROV-1
  GI50: 3.65 µM
[1]; Homo sapiens, IGROV-1, read-out: LC50 (the source's name)
  CC50: 65.4 µM
[1]
  TGI: 13.7 µM
[2]; Homo sapiens
  GI50: 0.373 µM
[2]; [32]
  CC50: 40 µM
[2]
  TGI: 8.45 µM
[3]
  TGI: 7.58 µM
[3]; Homo sapiens
  GI50: 1.49 µM
[3]; [32]
  CC50: 32.9 µM
[4]; Homo sapiens
  GI50: 4.65 µM
[4]; [32]
  CC50: 48.5 µM
[4]
  TGI: 17.8 µM
[5]
  TGI: 16.3 µM
[5]; Homo sapiens
  GI50: 4.06 µM
[5]; [32]
  CC50: > 100 µM
[6]; Homo sapiens
  GI50: 3.59 µM
[6]; [32]
  CC50: 64.9 µM
[6]
  TGI: 15.6 µM
[7]; Homo sapiens, K562
  GI50: 0.833 µM
[7]; Homo sapiens, K562, read-out: LC50 (the source's name)
  CC50: > 100 µM
[7]
  TGI: 14.2 µM
[8]; Homo sapiens
  GI50: 4.33 µM
[8]; [32]
  CC50: 45.5 µM
[8]
  TGI: 16.5 µM
[9]; Homo sapiens
  GI50: 3.61 µM
[9]; [32]
  CC50: 42 µM
[9]
  TGI: 15.1 µM
[10]
  TGI: 26.6 µM
[10]; Homo sapiens
  GI50: 13 µM
[10]; [32]
  CC50: 54.6 µM
[11]; Homo sapiens
  GI50: 12.4 µM
[11]; [32]
  CC50: 53.6 µM
[11]
  TGI: 25.8 µM
[12]; Homo sapiens
  GI50: 3.52 µM
[12]; [32]
  CC50: 41.1 µM
[12]
  TGI: 13.5 µM
[13]; Homo sapiens
  GI50: 2.61 µM
[13]; [32]
  CC50: 39.1 µM
[13]
  TGI: 13.2 µM
[14]; Homo sapiens
  GI50: 3.91 µM
[14]; [32]
  CC50: 43.1 µM
[14]
  TGI: 15.3 µM
[15]; Homo sapiens
  GI50: 4.03 µM
[15]; [32]
  CC50: > 100 µM
[15]
  TGI: 21 µM
[16]; Homo sapiens
  GI50: 0.75 µM
[16]; [32]
  CC50: 5.85 µM
[16]
  TGI: 2.26 µM
[17]; Homo sapiens
  GI50: 3.79 µM
  LC50: 35.4 µM
[17]
  TGI: 12.1 µM
[18]; Homo sapiens
  GI50: 1.36 µM
[18]; [32]
  CC50: 8.35 µM
[18]
  TGI: 3.37 µM
[19]; Homo sapiens
  GI50: 1.72 µM
  LC50 (50% lethal concentration): 7.52 µM
[19]
  TGI: 3.6 µM
[20]; Homo sapiens
  GI50: 6.65 µM
[20]; [32]
  CC50: 55 µM
[20]
  TGI: 21.6 µM
[21]; Homo sapiens
  GI50: 3.74 µM
[21]; [32]
  CC50: 57.4 µM
[21]
  TGI: 14.4 µM
[22]
  TGI: 3.77 µM
[22]; Homo sapiens
  GI50: 1.43 µM
[22]; [32]
  CC50: 9.98 µM
[23]; Homo sapiens
  GI50: 2.85 µM
[23]; [32]
  CC50: 37.2 µM
[23]
  TGI: 13.7 µM
[24]
  TGI: 7.84 µM
[24]; Homo sapiens, T47D
  GI50: 2.71 µM
[24]; Homo sapiens, T47D, read-out: LC50 (the source's name)
  CC50: 61.8 µM
[25]; Homo sapiens
  GI50: 1.79 µM
[25]; [32]
  CC50: 29.3 µM
[25]
  TGI: 7.8 µM
[26]; Homo sapiens
  GI50: 2.96 µM
[26]; [32]
  CC50: 37.8 µM
[26]
  TGI: 10.5 µM
[27]
  TGI: 11.8 µM
[27]; Homo sapiens
  GI50: 3.44 µM
  LC50 (50% net cell kill): 40 µM
[28]; Homo sapiens
  GI50: 0.554 µM
[28]; [32]
  CC50: 4.46 µM
[28]
  TGI: 1.87 µM
[29]; Homo sapiens
  GI50: 2.88 µM
[29]; [32]
  CC50: 63.8 µM
[29]
  TGI: 16.7 µM
[30]; Homo sapiens
  GI50: 1.07 µM
[30]; [32]
  CC50: 14.8 µM
[30]
  TGI: 3.58 µM
[31]
  TGI: 20.5 µM
[31]; Homo sapiens
  GI50: 2.71 µM
[31]; [32]
  CC50: > 100 µM
